Values quoted from earlier work in patent US8202842B2, “Inhibition of cholera toxins by galatooligosaccharides (GOS)” (priority 2006, dated 2012).

Legend:
[1] = biological target: cholera toxin (Vibrio cholerae serotype O1, UniProt P01556); conditions: rabbit, in vivo
[2] = test system: uropathogenic Escherichia coli; conditions: soluble, monovalent

Chain of cholera toxin (P01556 whole entry, looked up): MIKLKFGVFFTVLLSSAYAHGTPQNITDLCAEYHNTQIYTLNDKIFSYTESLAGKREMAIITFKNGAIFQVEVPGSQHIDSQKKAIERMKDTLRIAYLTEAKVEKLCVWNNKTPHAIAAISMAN

Compound	Inhibition of fluid accumulation induced by cholera toxin [1]	Interference with attachment and colonization of uropathogenic Escherichia coli [2]
3-sialyllactose	inhibitor of fluid accumulation	–
OC[C@H]1O[C@H](O[C@@H]2[C@H](O)[C@@H](O)[C@H](O[C@H]3[C@H](O)[C@@H](O)C(O)O[C@@H]3CO)O[C@@H]2CO)[C@H](O)[C@@H](O)[C@H]1O (some centres unmarked) [globotriose]	–	interfere with attachment and colonization
